# From the supplement of paper PMC11368000
# Experiments:
# Conditions in all cases: exposure time: 90 min
# 1516 [1] = donor line of iPSC-derived cardiomyocytes; test: POD (EC10) for decrease in total cell number (cytotoxicity) vs vehicle; higher = less potent (higher point of departure)
# Description: (§1)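 Human iPSC-derived cardiomyocytes from 16 donors were exposed for 90 min at 37 °C to each PFAS at 0.1, 1, 10 and 100 µM in 0.5% DMSO, 384-well plates. Kinetic Ca2+ flux (FLIPR) and Hoechst nuclei counts were normalised to vehicle wells and fitted with a hierarchical Bayesian Hill model to give donor-specific PODs: EC05 for beat-rate increase or decrease and for decay-to-rise ratio increase (QT proxy), EC95 for peak-frequency loss (asystole), EC10 for total cell number loss. 0.03 µM is the lower bound.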
# 1392 [2] = donor line of iPSC-derived cardiomyocytes; test: as above
# Description: as §1
# 1309 [3] = donor line of iPSC-derived cardiomyocytes; test: as above
# Description: as §1
# 30145 = donor line of iPSC-derived cardiomyocytes; test: as above
# Description: as §1
# 30171 [4] = donor line of iPSC-derived cardiomyocytes; test: as above
# Description: as §1
# 1118 = donor line of iPSC-derived cardiomyocytes; test: POD (EC05) for increase in beat frequency (positive chronotrope) vs vehicle; higher = less potent (higher point of departure)
# Description: as §1
# 1516 [5] = test: as above
# Description: as §1
# 1518 = donor line of iPSC-derived cardiomyocytes; test: as above
# Description: as §1
# 1083 = donor line of iPSC-derived cardiomyocytes; test: as above
# Description: as §1
# 1392 [6] = test: as above
# Description: as §1
# 11235 = donor line of iPSC-derived cardiomyocytes; test: as above
# Description: as §1
# 1309 [7] = test: as above
# Description: as §1
# 1531 = donor line of iPSC-derived cardiomyocytes; test: as above
# Description: as §1
# 1434 = donor line of iPSC-derived cardiomyocytes; test: as above
# Description: as §1
# 20084 = donor line of iPSC-derived cardiomyocytes; test: as above
# Description: as §1
# 20032 = donor line of iPSC-derived cardiomyocytes; test: as above
# Description: as §1
# 1368 = donor line of iPSC-derived cardiomyocytes; test: as above
# Description: as §1
# 1535 = donor line of iPSC-derived cardiomyocytes; test: as above
# Description: as §1
# 30171 [8] = test: as above
# Description: as §1
# 1565 = donor line of iPSC-derived cardiomyocytes; test: as above
# Description: as §1
SMILES,POD vs vehicle 1516 [1] [µM],POD vs vehicle 1392 [2] [µM],POD vs vehicle 1309 [3] [µM],POD vs vehicle 30145 [µM],POD vs vehicle 30171 [4] [µM],POD vs vehicle 1118 [µM],POD vs vehicle 1516 [5] [µM],POD vs vehicle 1518 [µM],POD vs vehicle 1083 [µM],POD vs vehicle 1392 [6] [µM],POD vs vehicle 11235 [µM],POD vs vehicle 1309 [7] [µM],POD vs vehicle 1531 [µM],POD vs vehicle 1434 [µM],POD vs vehicle 20084 [µM],POD vs vehicle 20032 [µM],POD vs vehicle 1368 [µM],POD vs vehicle 1535 [µM],POD vs vehicle 30171 [8] [µM],POD vs vehicle 1565 [µM]
"O=C(O)C(F)(F)OC(F)(F)C(F)(F)OC(F)(F)C(F)(F)OC(F)(F)C(F)(F)C(F)(F)C(F)(F)F [Perfluoro-3,6,9-trioxatridecanoic_acid]",55.4,> 100,> 100,> 100,59.5,> 100,> 100,> 100,> 100,> 100,> 100,> 100,> 100,> 100,> 100,> 100,> 100,> 100,> 100,> 100
"O=C(O)C(F)(F)OC(F)(F)C(F)(F)OC(F)(F)C(=O)O [Perfluoro-3,6-dioxaoctane-1,8-dioic_acid]",> 100,> 100,> 100,> 100,> 100,> 100,68.4,28,> 100,36,> 100,> 100,> 100,> 100,> 100,> 100,> 100,> 100,> 100,> 100
"OCC(F)(F)C(F)(F)C(F)(F)C(F)F [1H,1H,5H-Perfluoropentanol]",> 100,> 100,> 100,> 100,> 100,> 100,> 100,> 100,> 100,> 100,> 100,> 100,> 100,> 100,> 100,> 100,> 100,> 100,> 100,> 100
O=C(O)C(F)(F)C(F)(F)OC(F)(F)F [Perfluoro-3-methoxypropanoic_acid],> 100,> 100,> 100,> 100,> 100,> 100,> 100,> 100,> 100,> 100,> 100,> 100,> 100,> 100,> 100,> 100,> 100,> 100,> 100,> 100
O=C(O)C(F)(F)C(F)(F)C(F)(F)C(F)(F)C(F)(F)C(F)(F)C(F)(F)C(F)(F)Cl [9-Chloro-perfluorononanoic_acid],56.2,> 100,> 100,> 100,30.5,> 100,> 100,> 100,> 100,> 100,> 100,> 100,> 100,> 100,> 100,> 100,> 100,> 100,> 100,> 100
"O=S(=O)(OCC(F)(F)F)C(F)(F)C(F)(F)C(F)(F)C(F)(F)F [2,2,2-Trifluoroethyl_perfluorobutanesulfonate]",> 100,> 100,> 100,> 100,> 100,> 100,> 100,> 100,> 100,> 100,> 100,> 100,> 100,> 100,> 100,> 100,> 100,> 100,> 100,> 100
O=C(O)CCC(F)(F)C(F)(F)C(F)(F)F [3:3 Fluorotelomer carboxylic acid],> 100,> 100,> 100,> 100,> 100,> 100,> 100,> 100,> 100,> 100,> 100,> 100,> 100,> 100,> 100,> 100,> 100,> 100,> 100,> 100
"O=C(O)CCC(F)(F)C(F)(F)C(F)(F)C(F)(F)C(F)(F)F [2H,2H,3H,3H-Perfluorooctanoic_acid]",> 100,> 100,> 100,> 100,> 100,> 100,> 100,> 100,> 100,> 100,> 100,> 100,> 100,> 100,> 100,> 100,> 100,> 100,> 100,> 100
OCCC(F)(F)C(F)(F)C(F)(F)C(F)(F)C(F)(F)C(F)(F)C(F)(F)C(F)(F)F [8:2 Fluorotelomer alcohol],> 100,> 100,> 100,> 100,> 100,> 100,> 100,> 100,> 100,> 100,> 100,> 100,> 100,> 100,> 100,> 100,> 100,> 100,> 100,> 100
O=S(=O)([O-])C(F)(F)C(F)(F)C(F)(F)C(F)(F)F.[K+] [Potassium_perfluorobutanesulfonate],> 100,> 100,> 100,> 100,> 100,> 100,> 100,> 100,> 100,> 100,> 100,> 100,> 100,> 100,> 100,> 100,> 100,> 100,> 100,> 100
